Patent publication US7250445B1, “Anti-oxidant suppository for treating radiation proctopathy and other anorectal disorders” (priority 2005, dated 2007)

Legend:
radiation proctopathy [1] = conditions: topical; cited from earlier work
wound healing = conditions: following burn injury and surgeries; cited from earlier work
radiation proctopathy [2] = experiment: randomized double-blinded trial of vitamin A versus placebo in patients with radiation proctopathy; assay type: in vivo, human; conditions: retinol palmitate 10,000 IU by mouth for 90 days versus placebo
Description: (§1) The present inventor recently described a dramatic case of the patient with AIDS and anal carcinoma with developed a large radiation-induced anal ulceration with marked debility. The patient required high dose opioid therapy for control of anal pain. […] Radiation proctopathy is a form of injury of the rectum from radiation therapy administered for pelvic cancers such as cancers of the prostate, uterus and ovary. The present inventor recently designed, conducted and published a randomized double-blinded trial comparing vitamin A in the form of retinol palmitate (10,000 IU by mouth for 90 days) to placebo in patients with radiation proctopathy. […] The other form of vitamin A, (beta carotene), when applied topically, have the potential to enhance the effectiveness of retinol palmitate for treating radiation proctopathy and other anorectal disorders.

[3] = test system: radiation-induced anal ulceration; experiment: case of patient with AIDS and anal carcinoma with radiation-induced anal ulceration, oral vitamin A; assay type: in vivo, human; conditions: single patient
Description: as §1

| Compound | efficacy for radiation proctopathy (radiation proctopathy [1]) | wound healing (wound healing) | rectal symptoms of radiation proctopathy (radiation proctopathy [2]) | persistence of healing and symptomatic relief ([3]; after twelve week oral course) | wound healing and symptoms ([3]; twelve week course, orally administered retinol palmitate) |
| --- | --- | --- | --- | --- | --- |
| sucralfate | appear to be ineffective | – | – | – | – |
| CCCCCCCCCCCCCCCC(=O)OC/C=C(C)/C=C/C=C(C)/C=C/C1=C(C)CCCC1(C)C [vitamin A, retinol palmitate] | – | accelerate wound healing | significantly reduced rectal symptoms | persisted for more than six months | complete wound healing and symptomatic relief |
| Nc1ccc(O)c(C(=O)O)c1 [5-ASA, 5-aminosalicylic acid] | appear to be ineffective | – | – | – | – |
